“And” between values parts separate entries of the source, which are not always exact repeats. Identical values can stand only once.
System: A498 complex spheroids with HUVEC/MSC, growth
Assay: Anticancer human tumor A498 cell line growth inhibition [AhR];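 also: seven day exposure starting three days after spheroid seeding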;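 as to viability, T/C: luminescence signal used as a surrogate for viable cells; luminescence viability scaled so 100% equals DMSO vehicle wells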
Conditions: for viability, T/C: stronger effect = lower value
In short: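 Complex tumor spheroids co-cultured with HUVEC and human MSC stroma; AhR antagonists tested in combination with standard-of-care and investigational agents. Top concentration at or near clinical Cmax (else 10 microM), half-log dilutions; growth expressed as percent test/control.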

[1] = curve of first compound, second compound 0.1 µM
[2] = curve of first compound, second compound 0.316 µM
[3] = curve of first compound, second compound 1 µM
[4] = curve of first compound, second compound 3.16 µM
[5] = curve of first compound, second compound 10 µM
[6] = second compound 0.1 µM, first compound 0.0316 µM
[7] = second compound 0.1 µM, first compound 0.1 µM
[8] = second compound 0.1 µM, first compound 0.316 µM
[9] = second compound 0.1 µM, first compound 1 µM
[10] = second compound 0.1 µM, first compound 3.16 µM
[11] = second compound 0.1 µM, first compound 10 µM
[12] = second compound 0.316 µM, first compound 0.0316 µM
[13] = second compound 0.316 µM, first compound 0.1 µM
[14] = second compound 0.316 µM, first compound 0.316 µM
[15] = second compound 0.316 µM, first compound 1 µM
[16] = second compound 0.316 µM, first compound 3.16 µM
[17] = second compound 0.316 µM, first compound 10 µM
[18] = second compound 1 µM, first compound 0.0316 µM
[19] = second compound 1 µM, first compound 0.1 µM
[20] = second compound 1 µM, first compound 0.316 µM
[21] = second compound 1 µM, first compound 1 µM
[22] = second compound 1 µM, first compound 3.16 µM
[23] = second compound 1 µM, first compound 10 µM
[24] = second compound 3.16 µM, first compound 0.0316 µM
[25] = second compound 3.16 µM, first compound 0.1 µM
[26] = second compound 3.16 µM, first compound 0.316 µM
[27] = second compound 3.16 µM, first compound 1 µM
[28] = second compound 3.16 µM, first compound 3.16 µM
[29] = second compound 3.16 µM, first compound 10 µM
[30] = second compound 10 µM, first compound 0.0316 µM
[31] = second compound 10 µM, first compound 0.1 µM
[32] = second compound 10 µM, first compound 0.316 µM
[33] = second compound 10 µM, first compound 1 µM
[34] = second compound 10 µM, first compound 3.16 µM
[35] = second compound 10 µM, first compound 10 µM

Question: For `COc1cc(C2c3cc4c(cc3C(OC3OC5COC(C)OC5C(O)C3O)C3COC(=O)C23)OCO4)cc(OC)c1O` (stereo not given) + Cc1ccccc1N=Nc1ccc(NC(=O)c2ccnn2C)c(C)c1, which IC50 [1] is on record?
Answer: > 10000 nM

Question: What about the IC50 [2] of the same compound?
Answer: > 10000 nM

Question: What about the IC50 [3] of the same compound?
Answer: > 10000 nM

Question: And the IC50 [4]?
Answer: 7600 nM

Question: What about the IC50 [5] of the same compound?
Answer: 8760 nM

Question: And the viability, T/C [6]?
Answer: 73.9%

Question: And the viability, T/C [7]?
Answer: 68%

Question: What about the viability, T/C [8] of the same compound?
Answer: 63.5%

Question: And the viability, T/C [9]?
Answer: 64.6%

Question: And the viability, T/C [10]?
Answer: 61.3%

Question: And the viability, T/C [11]?
Answer: 49.2%

Question: And the viability, T/C [12]?
Answer: 85%

Question: What about the viability, T/C [13] of the same compound?
Answer: 76.9%

Question: What about the viability, T/C [14] of the same compound?
Answer: 77.4%

Question: And the viability, T/C [15]?
Answer: 66.7%

Question: And the viability, T/C [16]?
Answer: 59.5%

Question: And the viability, T/C [17]?
Answer: 53.2%

Question: And the viability, T/C [18]?
Answer: 75.3%

Question: What about the viability, T/C [19] of the same compound?
Answer: 71.1%

Question: What about the viability, T/C [20] of the same compound?
Answer: 67.5%

Question: What about the viability, T/C [21] of the same compound?
Answer: 63.4%

Question: And the viability, T/C [22]?
Answer: 52.9%

Question: What about the viability, T/C [23] of the same compound?
Answer: 52.7%

Question: And the viability, T/C [24]?
Answer: 72.9%

Question: What about the viability, T/C [25] of the same compound?
Answer: 68.7%

Question: What about the viability, T/C [26] of the same compound?
Answer: 72.6%

Question: What about the viability, T/C [27] of the same compound?
Answer: 62.8%

Question: And the viability, T/C [28]?
Answer: 55.4%

Question: And the viability, T/C [29]?
Answer: 48.6%

Question: And the viability, T/C [30]?
Answer: 74.8%

Question: What about the viability, T/C [31] of the same compound?
Answer: 73.1%

Question: And the viability, T/C [32]?
Answer: 77.2%

Question: And the viability, T/C [33]?
Answer: 66.7%

Question: What about the viability, T/C [34] of the same compound?
Answer: 61.5%

Question: And the viability, T/C [35]?
Answer: 48.5%

Question: Which results are given for `NS(=O)(=O)OCC1CC(n2ccc3c(NC4CCc5ccccc54)ncnc32)CC1O` (stereo not given)?
Answer: viability, T/C (compound 0.0316 µM): 96.3% and 93.7% and 99.8%; viability, T/C (compound 0.1 µM): 93.4% and 87.1% and 85.3%; viability, T/C (compound 0.316 µM): 56.3% and 53.1% and 37.4%; viability, T/C (compound 1 µM): 34.4% and 34.5% and 28.6%; viability, T/C (compound 3.16 µM): 23.7% and 26.2% and 21.3%; viability, T/C (compound 10 µM): 16.6% and 20% and 16.1%; IC50 (curve of compound): 474 nM and 421 nM and 239 nM

Question: How did the viability, T/C (compound 0.0316 µM) turn out when `CC1COCCN1c1cc(C2(S(C)(=N)=O)CC2)nc(-c2ccnc3[nH]ccc23)n1` (stereo not given) was run?
Answer: 106% and 101% (2×)

Question: What about the viability, T/C (compound 0.1 µM) of the same compound?
Answer: 111% and 103% and 107%

Question: And the viability, T/C (compound 0.316 µM)?
Answer: 104% and 99.8% and 95.7%

Question: And the viability, T/C (compound 1 µM)?
Answer: 92.2% and 72.5% and 72.7%

Question: What about the viability, T/C (compound 3.16 µM) of the same compound?
Answer: 61% and 46.5% and 37%

Question: What about the viability, T/C (compound 10 µM) of the same compound?
Answer: 29% and 24.8% and 19.5%

Question: And the IC50 (curve of compound)?
Answer: 4680 nM and 2570 nM and 2070 nM

Question: With `Cc1ccccc1N=Nc1ccc(NC(=O)c2ccnn2C)c(C)c1` as the compound, how does the viability, T/C (compound 0.1 µM) read?
Answer: 88.8% [middle of 20 runs]

Question: And the viability, T/C (compound 0.316 µM)?
Answer: 96.8% [middle of 20 runs]

Question: And the viability, T/C (compound 1 µM)?
Answer: 89.2% [middle of 20 runs]

Question: What about the viability, T/C (compound 3.16 µM) of the same compound?
Answer: 84.9% [middle of 20 runs]

Question: What about the viability, T/C (compound 10 µM) of the same compound?
Answer: 86.3% [middle of 20 runs]

Question: And the IC50 (compound alone, run of 08/22/2022)?
Answer: > 10000 nM

Question: `NS(=O)(=O)OCC1CC(n2ccc3c(NC4CCc5ccccc54)ncnc32)CC1O` (stereo not given) + Cc1ccccc1N=Nc1ccc(NC(=O)c2ccnn2C)c(C)c1 was tested. Which IC50 [1] did it give?
Answer: 334 nM

Question: And the IC50 [2]?
Answer: 359 nM

Question: And the IC50 [3]?
Answer: 316 nM

Question: What about the IC50 [4] of the same compound?
Answer: 341 nM

Question: What about the IC50 [5] of the same compound?
Answer: 348 nM

Question: What about the viability, T/C [6] of the same compound?
Answer: 87.8%

Question: What about the viability, T/C [7] of the same compound?
Answer: 83.8%

Question: And the viability, T/C [8]?
Answer: 49.3%

Question: And the viability, T/C [9]?
Answer: 31.3%

Question: And the viability, T/C [10]?
Answer: 26%

Question: What about the viability, T/C [11] of the same compound?
Answer: 20.1%

Question: What about the viability, T/C [12] of the same compound?
Answer: 88.5%

Question: And the viability, T/C [13]?
Answer: 83.8%

Question: And the viability, T/C [14]?
Answer: 51.2%

Question: And the viability, T/C [15]?
Answer: 31%

Question: And the viability, T/C [16]?
Answer: 25.7%

Question: What about the viability, T/C [17] of the same compound?
Answer: 21.3%

Question: And the viability, T/C [18]?
Answer: 86.2%

Question: What about the viability, T/C [19] of the same compound?
Answer: 78%

Question: What about the viability, T/C [20] of the same compound?
Answer: 49.2%

Question: And the viability, T/C [21]?
Answer: 30.1%

Question: And the viability, T/C [22]?
Answer: 24.2%

Question: What about the viability, T/C [23] of the same compound?
Answer: 21.9%

Question: What about the viability, T/C [24] of the same compound?
Answer: 83.5%

Question: What about the viability, T/C [25] of the same compound?
Answer: 77.3%

Question: What about the viability, T/C [26] of the same compound?
Answer: 49.6%

Question: And the viability, T/C [27]?
Answer: 33%

Question: What about the viability, T/C [28] of the same compound?
Answer: 25.9%

Question: What about the viability, T/C [29] of the same compound?
Answer: 22.7%

Question: What about the viability, T/C [30] of the same compound?
Answer: 78.2%

Question: What about the viability, T/C [31] of the same compound?
Answer: 71.7%

Question: What about the viability, T/C [32] of the same compound?
Answer: 50.5%

Question: What about the viability, T/C [33] of the same compound?
Answer: 33.9%

Question: And the viability, T/C [34]?
Answer: 25%

Question: What about the viability, T/C [35] of the same compound?
Answer: 23.2%

From PubChem BioAssay AID1919007 (Molecular Pharmacology Branch, DTP, NCI, 2023)
